Earlier results on 1 molecule are cited in patent publication US20260207481A1, “INTRANASAL […] OF C[…] TREAT CENTRAL NERVOUS SYSTEM DISORDERS” (Nose to Brain Therapeutics LLC, priority 2019, published 2026).

Data set [1] addresses CB2 (Homo sapiens, UniProt P34972).
For data set [2] the following is noted: oral mucosal sprays compared to IV administration (FIG. 2).

Chain of CB2 (P34972 whole entry): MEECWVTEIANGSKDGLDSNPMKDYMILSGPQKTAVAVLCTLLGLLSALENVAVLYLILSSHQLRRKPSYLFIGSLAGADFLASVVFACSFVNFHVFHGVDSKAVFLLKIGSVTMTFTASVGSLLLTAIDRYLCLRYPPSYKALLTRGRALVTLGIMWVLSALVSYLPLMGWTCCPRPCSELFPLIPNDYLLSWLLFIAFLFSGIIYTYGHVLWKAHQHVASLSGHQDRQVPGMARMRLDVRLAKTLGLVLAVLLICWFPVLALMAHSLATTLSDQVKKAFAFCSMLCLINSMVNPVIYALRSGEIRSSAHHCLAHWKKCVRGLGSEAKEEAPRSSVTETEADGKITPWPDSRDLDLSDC

Take `C=C(C)[C@@H]1CCC(C)=C[C@H]1c1c(O)cc(CCCCC)cc1O` [CBD, Cannabidiol]: the “binding affinity to CB2” value in data set [1] is listed as “minimal”. Also, the Cmax entry in data set [2] was “poor”.
